Where a name gives a salt, the structure may show the parent alone. Read-outs that look alike come from different tables or passages of the source.
How the values were obtained:
1N4R p-tau = tested on: T1, 1N4R p-tau; assay: p-tau aggregation modulator screen of 1280-compound library (ThS fluorescence net change over 16 h); format: biochemical; set-up: key to PTAI>3SD: *: PTAI>3SD
T1 construct: made in house; host or cells: E. coli (PIMAX system)

SH-SY5Y cells = assay: cells
Protocol: (see below). […] PI is excluded by living cells, but diffuses into dead cells where it binds nucleic acid and emits fluorescence. FDA/PI differential staining thus provides a quantitative assessment of cellular viability. The blue curves in Fig. 4a,b depict the cellular viability after treatment with 0–0.8 µM of p-tau.
P-tau (without pre-aggregation) and compounds were added together to cells. Cell viability was quantified by FDA and PI differential staining 24 h later. […] Cellular viability was characterized as above and plotted against the compound concentration. Trend lines in panels (a)–(c) were obtained with the dose response curve fitting function of the software Origin (Origin Pro 8, OriginLab Corporation, Northampton, MA, USA). (d) Representative images of apoptotic cells after treatment of p-tau. SH-SY5Y cells were treated with 0.6 µM of p-tau for 12 h before harvesting for annexin V and PI staining. […] The percentage of apoptotic SH-SY5Y cells was quantified by annexin V and PI double staining of cells receiving 12 h of the indicated treatment under each column in the graph. Error bars are standard deviations; n = 3.
SH-SY5Y cells were treated with 0–0.6 µM of p-tau in conjunction with varying doses of nitrazepam, prazepam or devazepide. […] The red dotted lines indicate 50% viability. Curve fitting was done with the dose–response fitting function of the software Origin (version 8, OriginLab Inc.). The number in parentheses represents the concentration (in µM) of the indicated compound.
Cell viability assays were tested according to reference[60] with modifications. PTAIs were typically added to cells along with (Fig. 4) or after p-tau was added to cells (Fig. 5). For PTAEs, 10 × concentration of p-tau and the test compounds were assembled for pre-aggregation (without heparin or ThS) for 48 h before adding 10 µl to 100 µl of cells in 96-well plates. Twenty-four or 48 h after the addition of protein/compound, cells were trypsinized and transferred to microcentrifuge tubes, and pelleted at 1000 × g for 5 min at room temperature for FDA, PI, annexin V, and ThS staining. For PI/ThS double staining, cell pellets were resuspended in 20 mM Tris, pH7.4 buffer and incubated with 100 µM ThS for 5 min at room temperature. 5-µg/ml propidium iodide was then added to cell suspension for observation under a microscope.
Supplemental Figure 2. […] SH-SY5Y cells were treated with the indicated concentrations p-tau and compounds (in µM) for 20 hours before FDA/PI differential staining and microscopic quantification. […] 0.2 or 0.4 µM of p-tau and 30 µM of each compound were pre-incubated in aggregation reactions for 24 hours before the 20-hr cell treatment and cytotoxicity quantification. FDA and PI dual staining was performed to measure cellular viability. SH-SY5Y cells Compounds in panel (a) were added to cells along with p-tau without pre-incubation.

p-tau = biological target: T2, p-tau (Homo sapiens, UniProt P10636); assay: p-tau aggregation assay, dose response (ThS fluorescence, inducer-free); format: biochemical; conditions: for effect on p-tau aggregation (16-h net change of ThS fluorescence): 6.25-150 µM benzodiazepine
T2 construct: made in house; host or cells: E. coli (PIMAX system)
Protocol: Aggregation of 6-µM p-tau under the influence of 30 µM of each of the library compounds or a DMSO vehicle control was monitored in 384-well plates every 10 min for ThS fluorescence changes over 16 h. To assess the quality of the high-throughput p-tau aggregation reactions, we used the T0 and T16hr ThS fluorescence units of no-compound control reactions to calculate the Z′-factor and coefficient of variation (CV), two commonly used criteria for robustness of high-throughput screens (HTS)[62]. A Z′-factor greater than 0.5 and CV smaller than 10% indicate robustness. […] To identify compounds with significant p-tau aggregation modulation, the net change of ThS fluorescence was calculated from all reactions (see Supplemental Table 1 for complete listing).
Aggregation of 6 µM of p-tau was done in the presence of the indicated concentrations of either compound. […] P-tau aggregation reactions with the C291S C322S (C/S) mutant p-tau were done in the presence of the indicated amounts of either compound. Shown are net changes of ThS over 16 h.
Given the tremendous socioeconomical burdens of AD, measures that prevent or delay the onset of the devastating neurodegeneration of AD will be highly impactful. If hyperphosphorylated tau-inflicted neuronal damages are an underpinning for AD and other tauopathies, enhancers of p-tau aggregation (PTAEs) may be risk factors for neurodegeneration. […] Prednicarbate is a synthetic corticosteroid for dermatological use, and carmofur (1-hexylcarbamoyl-5-fluorouracil) is an anti-neoplastic pyrimidine analogue. […] BZDs are among the most widely prescribed medication, in particular to the elderly, for depression and insomnia[70],[71]. We hypothesized that certain BZDs acted as a PTAE to potentiate p-tau aggregation and cytotoxicity. […] We therefore randomly picked nine prescription BZDs for p-tau aggregation assessment (Fig. 6; see Supplemental Fig. 5 for chemical structures). To 6-µM p-tau aggregation reactions, increasing doses of each of these BZDs were added.
Prednicarbate, a synthetic steroid, served as a PTAE control (yellow bars).
The aggregation assays over the course of this project have been done with multi-plate readers from different sources.
A common mix of 6 µM p-tau, 20 mM Tris pH 7.4, 1 mM DTT, and 20 µM ThS was assembled and dispensed to 384-well low-volume plates (10 µl per well) using BioTek EL406 Washer, followed by the addition of 150 nl of the Prestwick Library compounds (final concentration of 30 µM per well) or DMSO in a Beckman Coulter Biomek FX^P workstation. Each plate was covered with an Optical Adhesive Film and incubated at 37 °C for about 10 min. ThS fluorescence was measured every 10 min at 440/490 nm for 16 h by Biotek Synergy Neo Plate Reader. […] The real-time kinetics of ThS signals were collected using Gen5 software.

[1] = set-up: method as in PMID 29401722; conditions: cited from earlier work
women = conditions: cited from earlier work
[2] = tested on: C291S C322S (C/S) and C291A C322A (C/A) mutant p-tau; assay: aggregation of C/S or C/A mutant p-tau (ThS net change); format: biochemical; conditions: increasing doses of compound
Protocol: Figure 3 R-(−)-apomorphine and raloxifene are p-tau aggregation inhibitors (PTAIs) that act independently of the redox state of p-tau. (a) and (b) P-tau aggregation inhibition dose response curves of R-(−)-apomorphine and raloxifene. Aggregation of 6 µM of p-tau was done in the presence of the indicated concentrations of either compound. (c) Both R-(−)-apomorphine and raloxifene act independently of the two cysteine residues of p-tau. P-tau aggregation reactions with the C291S C322S (C/S) mutant p-tau were done in the presence of the indicated amounts of either compound. Shown are net changes of ThS over 16 h.
Many “hits” from prior tau-based HTS were non-selective redox modulators, due most likely to the susceptibility of unmodified tau fibrils to the oxidation of two cysteine residues of tau, C291 and C322. Because p-tau aggregation was not affected by changing the two cysteine residues to alanine or serine, we suspected that R-(−)-apomorphine and raloxifene would act independently of these two cysteine. […] By itself, the C/S p-tau gained 130 units of ThS fluorescence over the course of the aggregation reaction (blue column). With increasing doses of either compound, the net gain of ThS fluorescence decreased progressively. […]

K18 P301L = tested on: K18 P301L; set-up: method as in earlier work; conditions: 15 µM K18 P301L, 40 µM heparin; ref Probe Report ML103, National Center for Biotechnology Information, 2010; read-out: AC50 for tau aggregation inhibition; cited from earlier work
[3] = flag: p-tau aggregation inhibitor, ThS net change more than 3 SD from mean
[4] = library screen, ThS fluorescence net change over 16 h with p-tau
[5] = 50 or 200 µM compound, heparin-free
[6] = SH-SY5Y, p-tau pre-incubated with compound

T2 sequence (P10636 1-412 isoform P10636-7): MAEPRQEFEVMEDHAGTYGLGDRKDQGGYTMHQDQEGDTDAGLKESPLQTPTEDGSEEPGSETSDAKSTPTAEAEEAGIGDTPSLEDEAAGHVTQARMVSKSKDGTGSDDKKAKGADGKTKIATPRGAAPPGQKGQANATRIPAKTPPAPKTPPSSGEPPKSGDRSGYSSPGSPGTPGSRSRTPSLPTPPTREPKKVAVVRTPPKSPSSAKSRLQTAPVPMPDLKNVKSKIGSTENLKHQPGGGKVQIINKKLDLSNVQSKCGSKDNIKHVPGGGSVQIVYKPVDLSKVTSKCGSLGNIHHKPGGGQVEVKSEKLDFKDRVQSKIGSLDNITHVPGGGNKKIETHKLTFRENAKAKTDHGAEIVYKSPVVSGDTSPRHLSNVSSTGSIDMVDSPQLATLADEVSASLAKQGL

Which “PTAI>3SD” value (1N4R p-tau; [3]) does the source give for `CC(C)/N=c1\cc2n(-c3ccc(Cl)cc3)c3ccccc3nc-2cc1Nc1ccc(Cl)cc1` [Clofazimine, clofazimine, reference compound] here?
The value was “*”.

What about the ThS net change (1N4R p-tau; [4]) of the same molecule?
Its ThS net change is -196.

What about the p-tau cytotox (SH-SY5Y cells) of the same molecule?
The p-tau cytotox was “No change”.

What about the EC50 (p-tau; 6 µM p-tau, ThS fluorescence) of the same molecule?
Its EC50 is 68 µM.

What does the source list for `Oc1c(Cl)cc(Cl)c(Cl)c1Cc1c(O)c(Cl)cc(Cl)c1Cl` [Hexachlorophene, hexachlorophene]?
PTAI>3SD (1N4R p-tau): *; ThS net change (1N4R p-tau): 74; EC50 (p-tau): 17.8 µM

Which p-tau cytotox (SH-SY5Y cells) does the source give for `NNc1nncc2ccccc12` [Hydralazine, hydralazine hydrochloride] here?
Its p-tau cytotox is “No change”.

And the EC50 (p-tau; 6 µM p-tau, ThS fluorescence)?
Its EC50 is 21.8 µM.

Which results are given for `COC1=C(OC)C(=O)C(CCCCCCCCCCO)=C(C)C1=O` [Idebenone, idebenone]?
PTAI>3SD (1N4R p-tau; [3]): *; ThS net change (1N4R p-tau; [4]): -1; bioavailability [1]: very low bioavailability; EC50 (p-tau; 6 µM p-tau, ThS fluorescence): 10.5 µM

With `CCC(C)n1ncn(-c2ccc(N3CCN(c4ccc(OCC5COC(Cn6cncn6)(c6ccc(Cl)cc6Cl)O5)cc4)CC3)cc2)c1=O` (centres unmarked) [Itraconazole, itraconazole, reference compound] as the molecule, how does the “PTAI>3SD” value (1N4R p-tau; [3]) read?
Its value is “*”.

And the ThS net change (1N4R p-tau; [4])?
Its ThS net change is -31.

What about the p-tau cytotox (SH-SY5Y cells) of the same molecule?
The p-tau cytotox was “No change”.

What about the EC50 (p-tau; 6 µM p-tau, ThS fluorescence) of the same molecule?
The EC50 was 10.6 µM.

Which “PTAI>3SD” value (1N4R p-tau; [3]) does the source give for `COC(=O)C1=C(C)NC(C)=C(C(=O)OC)C1c1ccccc1[N+](=O)[O-]` [Nifedipine, nifedipine, reference compound] here?
Its value is “*”.

What about the ThS net change (1N4R p-tau; [4]) of the same molecule?
Its ThS net change is -97.

And the EC50 (p-tau; 6 µM p-tau, ThS fluorescence)?
Its EC50 is 24.3 µM.

What does the source list for `COC(=O)C1=C(C)NC(C)=C(C(=O)OCC(C)C)C1c1ccccc1[N+](=O)[O-]` (centres unmarked) [Nisoldipine, nisoldipine, reference compound]?
PTAI>3SD (1N4R p-tau; [3]): *; ThS net change (1N4R p-tau; [4]): -29; p-tau cytotox (SH-SY5Y cells): No change

What does the source list for `O=C(c1ccc(OCCN2CCCCC2)cc1)c1c(-c2ccc(O)cc2)sc2cc(O)ccc12` [Raloxifene, raloxifene hydrochloride]?
risk of mild cognitive impairment (MCI) (women; 3-year trial, 5386 participants, 120 mg daily): reduced risks of mild cognitive impairment (MCI); benefit for AD treatment (women; 12-month trial, 42 women with late-onset AD of mild to moderate severity): no significant benefits; EC50 (SH-SY5Y cells; Homo sapiens, SH-SY5Y, read-out: EC50, concentration of compound to reduce p-tau cytotoxicity by 50%, SH-SY5Y, 0.8 µM p-tau): 4.8 µM; aggregation of C/A or C/S mutant p-tau [2]: effectively inhibited; EC50 (p-tau; 6 µM p-tau, ThS fluorescence): 31.2 µM; effect on p-tau aggregation (p-tau; 50 µM compound): completely blocked p-tau aggregation

What does the source list for `CCOC(=O)c1nn(-c2ccccc2)c(=O)c2c(N)scc12` [compound 1]?
AC50 (K18 P301L): 3.3 ± 0.2 µM; effect on p-tau aggregation (p-tau; [5]): no effect on p-tau aggregation

Which AC50 (K18 P301L) does the source give for `Nc1scc2c(C(=O)O)nn(-c3ccccc3)c(=O)c12` [compound 2] here?
Its AC50 is 6.8 ± 0.4 µM.

And the “p-tau aggregation reduced to” value (p-tau; 400 µM compound)?
The value was 57%.

And the “p-tau aggregation reduced to” value (p-tau; 1 mM compound)?
The value was 46%.

And the “effect on p-tau aggregation” value (p-tau; [5])?
Its value is “moderate inhibition”.

What does the source list for `CN1C(=O)[C@@H](NC(=O)c2cc3ccccc3[nH]2)N=C(c2ccccc2)c2ccccc21` [devazepide]?
effect on p-tau cytotoxicity (cell death curve, LD50) (SH-SY5Y cells): decreasing LD50; effect on p-tau aggregation (16-h net change of ThS fluorescence) (p-tau; 6 µM p-tau): enhanced p-tau aggregation in a dose-dependent manner

With `CN1C(=O)CN=C(c2ccccc2)c2cc(Cl)ccc21` [diazepam] as the molecule, how does the “effect on p-tau aggregation (16-h net change of ThS fluorescence)” value (p-tau; 6 µM p-tau) read?
Its value is “enhanced p-tau aggregation in a dose-dependent manner”.

With `CCN(CC)CCN1C(=O)CN=C(c2ccccc2F)c2cc(Cl)ccc21` [flurazepam] as the molecule, how does the “effect on p-tau aggregation (16-h net change of ThS fluorescence)” value (p-tau; 6 µM p-tau) read?
The value was “enhanced p-tau aggregation in a dose-dependent manner”.

With `CN1C(=O)CN=C(c2ccccc2)c2cc([N+](=O)[O-])ccc21` [nimetazepam] as the molecule, how does the “effect on p-tau aggregation (16-h net change of ThS fluorescence)” value (p-tau; 6 µM p-tau) read?
The value was “did not”.

Which results are given for `O=C1CN=C(c2ccccc2)c2cc([N+](=O)[O-])ccc2N1` [nitrazepam]?
effect on p-tau cytotoxicity (cell death curve, LD50) (SH-SY5Y cells; [6]): did not alter the cytotoxicity of p-tau at all; effect on p-tau aggregation (16-h net change of ThS fluorescence) (p-tau; 6 µM p-tau): did not

Which “effect on p-tau aggregation (16-h net change of ThS fluorescence)” value (p-tau; 6 µM p-tau) does the source give for `O=C1CN=C(c2ccccc2)c2cc(Cl)ccc2N1` [nordiazepam] here?
The value was “did not”.

With `O=C1Nc2ccc(Cl)cc2C(c2ccccc2)=NC1O` (centres unmarked) [oxazepam] as the molecule, how does the “effect on p-tau aggregation (16-h net change of ThS fluorescence)” value (p-tau; 6 µM p-tau) read?
The value was “did not”.

Which “effect on p-tau cytotoxicity (cell death curve, LD50)” value (SH-SY5Y cells; [6]) does the source give for `O=C1CN=C(c2ccccc2)c2cc(Cl)ccc2N1CC1CC1` [prazepam] here?
The value was “decreasing LD50”.

And the “effect on p-tau aggregation (16-h net change of ThS fluorescence)” value (p-tau; 6 µM p-tau)?
The value was “enhanced p-tau aggregation in a dose-dependent manner”.

Which “effect on p-tau aggregation (16-h net change of ThS fluorescence)” value (p-tau; 6 µM p-tau) does the source give for `CN1C(=O)C(O)N=C(c2ccccc2)c2cc(Cl)ccc21` (centres unmarked) [temazepam] here?
Its value is “enhanced p-tau aggregation in a dose-dependent manner”.

From PMC7539012, “Hyperphosphorylated tau aggregation and cytotoxicity modulators screen identified prescription drugs linked to Alzheimer's disease and cognitive functions” (Scientific Reports, 2020)
